Results published in patent publication US20180265487A1, “SWEET TASTE MODULATORS” (Altria Client Services LLC, priority 2017, published 2018).

System: sweet taste perception
Experiment: time-intensity test of sweet taste (12 panelists, sample vs reference solution of 2 vol % sucrose, 1 vol % ethanol)
Format: in vivo, human
Details: for concentration at which perceived intensity and duration of sweet taste perception are increased: in 2 vol % sucrose
Source text: The influence of the sweet taste modulators on the temporal perception of sweetness can be shown by means of time-intensity tests. For time-intensity tests, a reference solution containing 2 vol % sucrose and 1 vol % ethanol in water and sample solutions (i.e., concentration of stock aqueous solutions listed in Table 1 below) containing 2 vol % sucrose and 1 vol % ethanol and the test compound in different concentrations in water were rated on a horizontal, non-structured line scale from 0 (not detectable) to 10 (very strongly detectable). The reference solution served as a baseline for the time-intensity tests upon which the sample solutions were compared for the temporal perception of sweetness. Twelve panelists were asked to rinse their mouths with an aliquot (10 mL) of a solution and immediately start rating solution's sweet taste intensity for a period of 5 seconds. […] The rating results were the averages from the twelve panelists.
FIGS. 7A and 7B illustrate empirical (FIG. 7A) and predictive (FIG. 7B) model time-intensity experiments using the reference solution containing 2 vol % sucrose and 1 vol % ethanol in water and a sample solution containing 50 μM EMF, 2 vol % sucrose and 1 vol % ethanol in water. Time intensity tests enable continuous measurement of the intensity of taste impressions.
After calculating average time intensity (TI) curves using FIZZ biosystems calculations software and determining the TI curves integrated value (i.e., area under the curve), duration, and duration of the increasing and decreasing phase from individual TI curves, the trapezoidal method was applied after extraction of data points at 5% and 95% of the respective maximum intensity on the increasing and decreasing sections of the individual TI curves. The following parameters were extracted for further data analysis: maximum intensity (Imax) of taste perception experienced, total area under the curve (Atotal) 1 (i.e., total amount) of taste perception experienced and total duration (Dtotal) of taste perception experienced. Extracted parameters of sample solutions were normalized on the reference solution from the same evaluation session and a two-way analysis of variance (ANOVA) was conducted.
Table 2 below illustrates an overview of all p-values generated by two-way ANOVA of maximum intensity (Imax), total area under the curve (Atotal) land total duration (Dtotal) for sample solutions containing 5-ethyoxymethylfurfural (EMF), as well as ester of 5-hydroxymethylfurfural and vanillic acid (VanMF), 4-hydrozybenzaldehyde (pHBA), syringic aldehyde (SyA), and sinapic aldehyde (SinA), respectively. P-values (i.e., calculated probabilities) are statistical measures ranging from 0 to 1 which quantify the statistical significance of a data set. In other words, the p-value is a function of the observed sample results (a test statistic) relative to a statistical model, which measures how extreme the observation is. Smaller p-values are indicative of scaling significance. For example, p <0.05 are “significant” (*) (i.e., less than 1 in 20 chance, or 5%, of the data set being erroneous or inaccurate); p <0.01 are “highly significant” (**) (i.e., less than 1 in 100 chance, or 1%, of the data set being erroneous or inaccurate); and, p <0.001 are “very highly significant” (***) (less than 1 in 1000 chance, or 0.1%, of the data set being erroneous or inaccurate). Measured concentrations of EMF, VanMF, pHBA, SyA, and SinA in the sample solutions used in the statistical analysis are 10 μmol/L, 25 μmol/L, and 50 μmol/L, respectively. The p-values in Table 2 below relate to the statistical significance of the Imax, Atotal, and Dtotal values of sample solutions containing EMF, VanMF, pHBA, SyA, and SinA, respectively, in FIGS. 8-12.

Structure (SMILES)	increase of Atotal vs reference solution (significance) (10 μM)	increase of Dtotal vs reference solution (significance) (10 μM)	increase of Imax vs reference solution (significance) (10 μM)	increase of Atotal vs reference solution (significance) (25 μM)	increase of Dtotal vs reference solution (significance) (25 μM)	increase of Imax vs reference solution (significance) (25 μM)	increase of Atotal vs reference solution (significance) (50 μM)	increase of Dtotal vs reference solution (significance) (50 μM)	increase of Imax vs reference solution (significance) (50 μM)	total area under the curve (Atotal) compared with reference solution (50 μM in 2 vol % sucrose, 1 vol % ethanol)	maximum intensity (Imax) of sweet taste perception on the intensity scale (50 μM in 2 vol % sucrose, 1 vol % ethanol, scale 0 to 10, reference solution about 3.5)	concentration at which perceived intensity and duration of sweet taste perception are increased (1 vol % ethanol)
CCOCc1ccc(C=O)o1 [EMF, 5-ethoxymethyl-2-furaldehyde]	no significant increases	no significant increases	no significant increases	no significant increases	no significant increases	very highly significant increase	*** (p <0.001 are “very highly significant” (***))	*** (p <0.001 are “very highly significant” (***))	*** (p <0.001 are “very highly significant” (***))	greater than Atotal for the reference solution	~5	at least 50 μM
COc1cc(/C=C/C=O)cc(OC)c1O [SinA, sinapic aldehyde]	significant increases	no significant increase	significant increases	significant increases	significant increases	significant increases	significant increases	significant increases	significant increases			
COc1cc(C=O)cc(OC)c1O [SyA, syringic aldehyde]	do not have a significant influence	do not have a significant influence	do not have a significant influence	*** (p <0.001 are “very highly significant” (***))	* (p <0.05 are “significant” (*))	** (p <0.01 are “highly significant” (**))	** (p <0.01 are “highly significant” (**))		** (p <0.01 are “highly significant” (**))			
COc1cc(C(=O)OCc2ccc(C=O)o2)ccc1O [VanMF, ester of 5-hydroxymethylfurfural and vanillic acid]	** (p <0.01 are “highly significant” (**))	** (p <0.01 are “highly significant” (**))	** (p <0.01 are “highly significant” (**))	* (p <0.05 are “significant” (*))	* (p <0.05 are “significant” (*))	** (p <0.01 are “highly significant” (**))	no significant increases	* (p <0.05 are “significant” (*))	no significant increases			
O=Cc1ccc(O)cc1 [pHBA, 4-hydrozybenzaldehyde]	No significant increases	No significant increases	No significant increases	** (p <0.01 are “highly significant” (**))		*** (p <0.001 are “very highly significant” (***))	** (p <0.01 are “highly significant” (**))	** (p <0.01 are “highly significant” (**))	** (p <0.01 are “highly significant” (**))			50 µM
